Experiments:
FaDu cells = assay: Boron uptake in FaDu cells in vitro (ICP-OES); assay type: cell-based, human; settings: for intracellular boron concentration: equimolar 2.5 mM compound in HBSS, 2 hr, 37° C., ICP-OES
[1] = Pharmacokinetics in non-tumor-bearing Balb/C mice (blood boron by ICP OES); assay type: in vivo; settings: for CL / Vss: i.v. tail vein, Balb/C male mice, blood boron
Experimental: To determine the pharmacokinetics of BTS versus BPA (BPA-fructose) in blood, the following experiments were performed using the following protocols and under the parameters set forth in Table II. Briefly, […] of each compound ([…] and BPA-fructose) was injected into the tail vein of Balb/C non-tumor bearing male mice (5 mice per group). Blood was drawn at the following time points: 2, 5, 16, 30, 60, 120 and 240 min into EDTA-coated tubes. Boron concentration was measured using ICP OES following the digestion in concentrated nitric acid for one (1) hr. The boron concentration was normalized to 1 mL of blood and plotted using GraphPad Prizm. The PK parameters (see 20(B)) were obtain using PK Solver version 2.0 using compartmental analysis. BPA-fructose was used as a reference substance.

[2] = Cellular retention of boron after removal of boron source from the media; assay type: cell-based
LAT-1 [3] = target: T1, LAT-1 (Homo sapiens, UniProt Q01650); assay: Boron accumulation in presence of LAT-1 inhibitors (unpublished); assay type: cell-based; settings: unpublished earlier work of the applicant
Target sequence in this assay (Q01650 whole entry, species assumed): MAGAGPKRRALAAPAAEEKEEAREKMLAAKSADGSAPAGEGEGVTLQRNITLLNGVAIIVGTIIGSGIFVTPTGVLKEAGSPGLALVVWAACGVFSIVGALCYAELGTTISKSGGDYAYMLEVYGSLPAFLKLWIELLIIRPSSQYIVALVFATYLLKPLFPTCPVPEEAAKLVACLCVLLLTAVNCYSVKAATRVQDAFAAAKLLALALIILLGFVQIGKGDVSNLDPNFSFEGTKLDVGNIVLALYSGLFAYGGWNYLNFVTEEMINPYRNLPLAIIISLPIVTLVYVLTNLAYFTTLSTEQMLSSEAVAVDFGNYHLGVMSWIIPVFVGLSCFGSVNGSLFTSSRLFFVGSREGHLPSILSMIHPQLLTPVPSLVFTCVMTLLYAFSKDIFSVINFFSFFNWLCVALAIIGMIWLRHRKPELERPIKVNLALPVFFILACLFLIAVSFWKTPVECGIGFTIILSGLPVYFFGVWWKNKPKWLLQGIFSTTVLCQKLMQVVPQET
Target sequence in this assay (P08195 102-630 partner, species assumed): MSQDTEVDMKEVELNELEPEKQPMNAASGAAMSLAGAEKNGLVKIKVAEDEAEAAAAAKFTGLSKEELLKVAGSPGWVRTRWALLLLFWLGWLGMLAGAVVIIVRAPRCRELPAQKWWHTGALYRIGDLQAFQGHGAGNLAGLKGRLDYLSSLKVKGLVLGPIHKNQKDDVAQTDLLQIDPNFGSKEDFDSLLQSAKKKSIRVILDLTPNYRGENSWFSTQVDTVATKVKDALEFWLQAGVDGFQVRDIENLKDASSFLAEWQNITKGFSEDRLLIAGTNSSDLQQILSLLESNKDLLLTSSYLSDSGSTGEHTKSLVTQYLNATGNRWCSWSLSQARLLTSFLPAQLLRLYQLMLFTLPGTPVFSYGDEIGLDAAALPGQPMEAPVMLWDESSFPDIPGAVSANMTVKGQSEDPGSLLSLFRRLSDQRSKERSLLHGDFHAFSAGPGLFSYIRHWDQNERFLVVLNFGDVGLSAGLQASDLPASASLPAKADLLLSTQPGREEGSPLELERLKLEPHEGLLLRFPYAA

[4] = tested on: FaDu, Detroit 562, MeWo, A549, HCC-1954 xenografts; assay: Boron uptake across panel of established tumor xenografts; assay type: in vivo; settings: BTS or BTS(OMe) 800 mg/kg vs BPA 200 mg/kg, 2 hours post-injection, SCID CB-17 mice
From the text: In a further experiment, to ascertain whether BTS and BTS(OMe) are taken up to a relatively higher degree across cancer multiple cell lines which results in a higher boron concentration, the following protocol was used. Briefly, a panel of five (5) human cancer cell lines derived from multiple indications that would be considered for treatment using BNCT were used. Specifically, the panel consisted of Head and Neck Carcinomas (FaDu and Detroit 562), melanoma (MeWo), non-small cancer lung carcinoma (A549), and breast carcinoma (HCC-1954).
Using standard methods, subcutaneously implanted established mouse xenografts were grown in SCID CB-17 mice. The treatment began when the tumors reached 150-200 mm^3 as follows: the BTS or BTS(OMe) arms received 800 mg/kg and the control BPA arm received 200 mg/kg. The animals were euthanized at two (2) hours post-injection. The tumors were harvested, weighed, and digested using the standard methods. The concentration of boron was measured by ICP OES and plotted as microgram per gram tissue. […] However, the absolute uptake varied between the cell lines with the overall lowest uptake observed in the Detroit 562 tumors.

[5] = tested on: FaDu, A375, SCC-25, A253, and Detroit 562; assay: BTS uptake across head and neck cancer and melanoma cell lines; assay type: cell-based, human; settings: 2 hours treatment, each of the five cell lines
Experimental: To evaluate the uptake of BTS in multiple head and neck cancer cell lines as well as melanoma cell lines the following experiments were performed using the following protocols.
Briefly, five (5) human-derived cell lines (FaDu, A375, SCC-25, A253, and Detroit 562), all representing cancer indications relevant to BNCT treatment, were cultured, and treated with either BPA-fructose (the standard of care) or with BTS for two (2) hours. The cells were then washed to remove the compounds, harvested, and treated as per the protocol described above. Boron uptake was reported as μg boron per mg of cellular protein as determined by ICP OES and by the BCA assay, respectively.

Solubility in water = assay type: physicochemical
Experimental: To determine the solubility and impurity profiles of BTS and BTS(OMe) in solution, the following experiments were performed using the following protocols. Briefly, BTS test article preparation(s) were prepared by dissolving in water and adjusting pH to 7-7.5 by NaOH.
BTS(OMe) test article preparation(s) were prepared by dissolving in water and gradually raising pH by adding NaOH until all the crystals are solubilized. The pH at that point is approximately 9.5-10. Fructose is then added at the ratio of 1.1 mol/mol BTS(OMe). The pH is adjusted to 7-7.5 using concentrated HCl.
Both solutions were adjusted to 100 mg/mL and 0.2 μm filtered. The actual concentrations are confirmed by ICP OES.

CT26 cells = assay: Boron uptake in CT26 cells in vitro (ICP-OES); assay type: cell-based, mouse; settings: CT26 cell line, single experiment
From the text: As a result, it accumulates boron compounds at significant levels. Additionally, FaDu also grows well as an established xenograft model in SCID mice. This disclosure endeavored to determine whether a mouse-derived cancer cell line, CT-26, is suitable for BNCT experiments. By way of background, CT26 is a syngeneic model, it can be implanted and established in wild-type BalbC mice and provides a convenient and low-cost model.
Briefly, CT26 cells were harvested and washed with PBS two (2) times, and the count was adjusted 2 million/ml in HBSS media Boron compounds were then added to cells at the final concentration of 2.5 mM in HBSS and the cells were incubated at 37° C. in a humidified 5% CO2 atmosphere for 2.0 hrs. with shaking. Following a two (2) hr. incubation, cells were harvested and washed two times with ice cold PBS. Cells were suspended in 1 ml ice cold PBS and a portion (50 NI) was lysed in RIPA buffer and protein content was determined by BCA assay.
The remaining portion (950 NI) was subjected to nitric acid lysis (66.7% acid at 80° C.) and boron measurements were carried out using ICP-OES.
Low expression of LAT-1 in CT26 estimated by Western blot is consistent with the overall reduced boron uptake. Each bar represents three (3) independent experiments performed on different days (FaDu) or a single experiment (CT-26) Error bars represent 1 standard deviation. […]

LAT-1 [6] = target: T1, LAT-1; assay: Uptake competition assay with phenylalanine in FaDu cells; assay type: cell-based; set-up: endogenous in cells; host or cells: FaDu; settings: 0.5 mM compound, Phe 0.01 to 20 mM, compared to BTS(OMe) or BPA
Experimental: To determine the ability for BTS and BTS(OMe) to mediate LAT-1, the following experiments were performed using the following protocols. Briefly, FaDu cells (2 million) were incubated in HBSS medium for two (2) hrs. at 37° C. with 0.5 mM of either (i) BTS, (ii) BTS(OMe), or (iii) BPA-fructose in the absence (19A) or presence of increasing concentrations of LAT-1 specific inhibitor JPH203-dichloride, (19A) or phenylalanine, a competitor (19B). Following incubation, the cells were harvested and washed with cold PBS. The amount of each compound that was taken up by the cells was determined by ICP OES. The IC50 determination was made by a three (3) parameter inhibitor non-linear regression fit using Prism (Graph Pad) software.
In the competition assay, increased concentration of Phe in the range of 0.01 to 20 mM was used. […] (FIG. 19).
Target sequence in this assay (Q01650 whole entry): as the sequence (Q01650 whole entry, species assumed) above
Target sequence in this assay (P08195 102-630 partner): as the sequence (P08195 102-630 partner, species assumed) above

subcutaneous FaDu tumors = assay: Time-course biodistribution and tumor to blood ratio in mice bearing subcutaneous FaDu tumors; assay type: in vivo; settings: 400 mg/kg bolus i.v.
Experimental: To determine the biodistribution of BTS and BTS(OMe) and the tumor to blood ration, the following experiments were performed using the following protocols. Briefly, all compounds tested, with the exception of BPA, were prepared as 100 mg/mL stocks. BPA was prepared as a fructose solution at 25 mg/ml. The concentrations were confirmed by ICP OES prior to the study. The blood and tissues (tumor, kidney, and pancreas) were harvested at the times indicated, weighed, and placed inside the Teflon containers and digested using a CEM microwave oven. The digested tissues were analyzed by ICP OES to determine the boron concentration.
All animal studies were carried out following the “Guide for the care and use the laboratory animals,” Eighth Edition and Animal Welfare Act (USDA). Briefly, human hypopharyngeal squamous cell carcinoma FaDu cells were maintained in DMEM, supplemented with L-glutamine and 10% FBS. Subcutaneous (s.c.) tumors were generated by injection of 2.5×10^6 cancer cells mixed at a 1:1 dilution with Matrigel (Corning Life Sciences) in the right flank of female CB17 SCID mice. Tumor sizes were determined by caliper measurements, and the tumor volume was calculated as width^2×Length/2, wherein width is the smallest dimension and length is the largest dimension. Tumors were allowed to grow untreated until they reached an approximate volume of 300 mm^3. At that point, animals were randomized and allocated to each treatment group based on tumor volume at the time of treatment initiation to ensure similar mean tumor size and variation in each group.
Each group received a single dose of BPA at […] or a test article at either 400 mg/kg or […] via intravenous tail vein injection. […] Two (2) hrs. post dose, blood was collected from each mouse from the submandibular vein into K2 EDTA coated tubes. Tumor and organs were collected for boron analysis.
In order to determine the biodistribution of BTS and BTS(OMe) in FaDu-tumor bearing mice and determine the most appropriate time to harvest the tumor and organs of interest during the subsequent dose-escalation studies, 400 mg/kg doses of both molecules were administered as a bolus i.v. injection. BPA-fructose was administered at a dose of […] due to its solubility constraints and the requirements for the maximum i.v. volume allowed. The boron compound accumulation in blood/organs was determined by ICP OES and expressed as μg boron per gram of tissue.

[7] = tested on: F98 and C6 rat glioma cell lines; assay: BTS uptake using rat glioma cell lines; assay type: cell-based; settings: 2 hr, F98 and C6 cells
From the text: Rat glioma cell lines were extensively used as orthotopic cancer models to conduct reactor based BNCT studies using either innovative boron carriers or a myriad of ways to enhance the uptake of BPA, including convection enhanced delivery of boronoporphyrins (Yang, et al., doi:10.1016/j.apradiso.2014.01.002), or pre-treatment of tumors with L-DOPA (Barth, et al., J Neurooncol. 2009; 94:299-312).
In this experiment, used cultured cell lines to confirm that BTS can be used for efficient boron delivery into both F98 and C6 rat glioma cell lines. […] This compound is expected to cross BBB and will be relevant for BNCT of brain tumors.

subcutaneous FaDu = assay: Dose titration, biodistribution and boron uptake using subcutaneous FaDu xenografts; assay type: in vivo, mice; settings: 2 hr post injection
Experimental: To determine the biodistribution and boron uptake of BTS and BTS(OMe) in vivo, the following experiments were performed using the following protocols. Briefly, to evaluate the effect of increased dose level using bolus i.v. injection on the accumulation of boron in the tumor, SCID mice carrying subcutaneous FaDu were dosed with BTS and BTS(OMe) at the levels ranging from 400 to 1000 mg/kg.
The tumor and selected organs were harvested at two (2) hr. post injection and processed for ICP OES.

Structure (SMILES) | intracellular boron concentration (FaDu cells) [µg/g] | CL [1] | Vss [1] [mg/µg/mL] | effect of LAT-1 inhibitor on boron accumulation of borylated tyrosine analogs (LAT-1 [3]) | amount of boron in tumors across xenograft panel [4] | solubility in water (Solubility in water) | other results
N[C@@H](Cc1ccc(B(O)O)cc1)C(=O)O [BPA, 4-Borono-L-phenylalanine, reference compound] | 1097 ± 59 | 0.00011 mg/(μg/mL)/min | 0.0289 | – | – | – | intracellular boron once boron source is removed and replaced with fresh medium (cellular retention) [2]: decreases sharply
NC1(C(=O)O)CC2CCC1C2 (stereo not shown) [BCH, 2-aminobicyclo-(2,2,1)-heptane-2-carboxylic acid] | – | – | – | diminished boron accumulations in a concentration-dependent fashion | – | – | –
N[C@@H](Cc1ccc(O)c(B(O)O)c1)C(=O)O [BTS] | 1700 ± 133 | 0.000304 mg/(μg/mL)/min | 0.0252 | – | highest | very soluble in water | intracellular boron concentration higher compared to BPA-fructose (FaDu cells; equimolar concentrations): 60%; pharmacokinetic profile ([1]; saline formulation, i.v.): bi-phasic pharmacokinetics; boron uptake compared to BPA-fructose [5]: superior uptake; amount of compound internalized in CT26 less than in FaDu (CT26 cells): more pronounced; IC50 of phenylalanine competition of compound uptake (LAT-1 [6]): higher IC50; uptake in murine pancreas (subcutaneous FaDu tumors): exceedingly high uptake; increase of tumor to blood ratio between 30 and 60 min (subcutaneous FaDu tumors; FaDu xenografts): more than two-fold; decline of boron in the kidney (subcutaneous FaDu tumors; from initial time point of 5 min): considerably slower; boron concentration achieved, BTS compared to BPA-fructose [7]: > 2 fold
Nc1cc(COc2c(Cl)cc(C[C@H](N)C(=O)O)cc2Cl)c2oc(-c3ccccc3)nc2c1 [JPH203] | – | – | – | diminished boron accumulations in a concentration-dependent fashion | – | – | –
COc1ccc(C[C@H](N)C(=O)O)cc1B(O)O [BTS(OMe)] | 1005 ± 113 | – | – | – | highest | very soluble in water | biodistribution compared to BPA (subcutaneous FaDu tumors; BPA-fructose 200): remarkably similar in its biodistribution to BPA; accumulation in kidney or pancreas (subcutaneous FaDu): does not accumulate

From patent publication US12319707B2, “Dosage unit form(s) comprising BTS and BTS(OMe) for use in boron neutron capture therapy and methods thereof” (TAE Life Sciences, priority 2021, dated 2025)
